Tests used:
OVCAR8 = assay: drug sensitivity score (DSS2) on cancer cell count; higher = more sensitive; extreme values may be limits of the assay; conditions: 72 h
Method in brief: (§1)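 Ovarian cancer cells were cultured either alone or directly mixed 1:1 with lung or skin fibroblasts and plated onto 384-well plates acoustically pre-spotted with 528 approved and investigational compounds at 5 concentrations for 72 h of treatment. After fixation, cells were immunostained for CK8/18 with Hoechst and imaged at 10× across 4 fields to count cancer cells. Responses were fitted with 4-parameter logistic curves, and from these fits a drug sensitivity score was derived in Breeze, with screen quality assessed by Z'.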

KURAMOCHI = assay: as above; conditions: 72 h
Method in brief: as §1

[1] = co-cultured fibroblast: BJHTERT
[2] = co-cultured fibroblast: none (monoculture)

Row | SMILES | drug sensitivity score (OVCAR8; [1]) [DSS] | drug sensitivity score (OVCAR8; co-cultured fibroblast: WI38) [DSS] | drug sensitivity score (OVCAR8; [2]) [DSS] | drug sensitivity score (KURAMOCHI; [1]) [DSS] | drug sensitivity score (KURAMOCHI; co-cultured fibroblast: WI38) [DSS] | drug sensitivity score (KURAMOCHI; [2]) [DSS]
1 | Cc1ccc(C(=O)Nc2ccc(Oc3cc4cnn(C)c4cc3-c3cn[nH]c3)c(F)c2)c(=O)n1-c1ccc(F)cc1 [Merestinib] | 0 | 0 | 0.1 | 0 | 1.5 | 1.5
2 | C=CC(=O)Nc1cccc(Oc2nc(Nc3ccc(N4CCN(C)CC4)cc3)nc3ccsc23)c1 [Olmutinib] | 0 | 0 | 0 | 2.1 | 2.7 | 0
3 | Cc1cnc(Nc2ccc(OCCN3CCCC3)cc2)nc1Nc1cccc(S(=O)(=O)NC(C)(C)C)c1 [Fedratinib] | 4.9 | 5.2 | 7.2 | 7.9 | 3.7 | 2.8
4 | COc1cccc2c1C(=O)c1c(O)c3c(c(O)c1C2=O)C[C@@](O)(/C(CO)=N/NC(=O)CCCCCN1C(=O)C=CC1=O)C[C@@H]3O[C@H]1C[C@H](N)[C@H](O)[C@H](C)O1 [Aldoxorubicin] | 12.9 | 11.7 | 13.1 | 13.3 | 13.8 | 19.1
5 | Cc1ccc(NS(=O)(=O)c2cccc(C#N)c2)c2[nH]cc(C#N)c12 [E7820] | 5.4 | 0 | 12.8 | 6.5 | 9.7 | 15.8
6 | COc1ccc(COc2cc3oc(=O)c4cc(C(C)O)ccc4c3cc2OC)cc1 (stereo not drawn) [Palomid-529] | 1.1 | 1 | 0 | 0 | 0 | 0
7 | CC(C)Nc1cc(-c2c[nH]c(C(=O)N[C@H](CO)c3cccc(Cl)c3)c2)c(Cl)cn1 [Ulixertinib] | 8.8 | 13.9 | 11 | 9.7 | 9.6 | 12.2
8 | C/C=C1\NC(=O)[C@H]2CSSCC/C=C/[C@H](CC(=O)N[C@H](C(C)C)C(=O)N2)OC(=O)[C@H](C(C)C)NC1=O [Romidepsin] | 29.2 | 26.5 | 30.4 | 28 | 30 | 32.7
9 | CCCc1cc(C)[nH]c(=O)c1CNC(=O)c1cc(-c2ccnc(N3CCN(C)CC3)c2)cc2c1cnn2C(C)C [GSK343] | 1 | 0 | 0 | 0 | 0 | 0
10 | Cc1cnc(NC(=O)Nc2cc(Br)c(C)cc2OC[C@@H]2CNCCO2)cn1 [Rabusertib] | 0.2 | 0 | 0 | 0.4 | 0 | 0
11 | CC/C(=C(\c1ccccc1)c1ccc(OCCN(C)C)cc1)c1ccccc1 [Tamoxifen] | 3.3 | 0 | 1 | 1.3 | 1.3 | 0
12 | Cc1cc(Nc2ncnc3ccc(NC4=NC(C)(C)CO4)cc23)ccc1Oc1ccn2ncnc2c1 [Tucatinib] | 0 | 0 | 0 | 2.9 | 0 | 2.5
13 | COc1ncc(-c2ccc3nccc(-c4ccnnc4)c3c2)cc1NS(=O)(=O)c1ccc(F)cc1F [Omipalisib] | 8.9 | 6.5 | 13 | 17.1 | 17.9 | 12.1

From the supplement of paper PMC12420376
